Experimental data: publication PMC7531004, “Discovery of gramicidin A analogues with altered activities by multidimensional screening of a one-bead-one-compound library” (Nature Communications, 2020)
Read-outs that look alike come from different tables or passages of the source. Where a SMILES comes first, the peptide text is derived from it. [ ]: non-standard residue; d: D form. The star is where a group is joined. NHCH2CH2OH = OCCN*; For = O=C*

Key:
[1] = system: Streptococcus pyogenes SSI-9; assay: Antibacterial activity assay of bead-derived peptides (three concentrations); format: cell-based; parameters: key: +++: inhibition by the 640-fold diluted peptide solution; ++: inhibition by the 160-fold diluted solution; +: inhibition by the 40-fold diluted solution; -: no inhibition; conditions: S. pyogenes
In short: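 Library peptide stock applied undiluted, 4-fold and 16-fold diluted in DMSO to S. pyogenes SSI-9 (2 × 10^5 CFU) in cation-adjusted Mueller Hinton broth with 5% laked horse blood. After 18 h at 37 °C, growth judged by visible cell precipitation.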

[2] = Procedure: (§1) Second, we examined the cytotoxicity toward mammalian cancer cells and hemolytic activity of 1. […] Hemolytic activity was evaluated by monitoring hemoglobin leakage from rabbit red blood cells as a consequence of membrane damage. The concentration of 1 required to cause 10% hemoglobin leakage (HC10) was 160 nM. Thus, the P388 cytotoxicity of 1 was 28-fold more sensitive than its hemolytic activity.
(§2) Mammalian cytotoxicity assay of purified peptides.
(§3) B22 was diluted with the growth medium with 2% DMSO to various concentrations as 5-fold serial dilution.
(§4) The collected cells were resuspended into
(§5) the growth medium at 2 × 10^4 cells/mL. Aliquots of the former medium (2% DMSO, 100 µL) containing
(§6) peptides and the latter medium containing P388 cells (100 µL) were mixed in a 96-well cell culture plate
(§7) (TR5003, TrueLine). The final concentration of P388 cells and DMSO were 1 × 10^4 cells/mL and 1%,
(§8) respectively. […]
(§9) were determined by WST -1 assay. A solution of 1-methoxy PMS and WST-1 in the growth medium
(§10) (1-methoxy PMS 0.70 mg/mL in Milli-Q/WST-1 3.6 mg/mL in pH 7.4 HEPES buffer = 1/9) was added to
(§11) each well of the plate (20.0 µL/well). The cells were incubated for 4 h under atmosphere of 5% CO 2 at
(§12) 37 °C. The absorbance of each well at 415 nm was measured using a Benchmark microplate reader
(§13) (Bio-Rad) or Thermo Scientifi c Multiskan GO (Thermo Fisher Scientific). The cytotoxicities of the purified
(§14) peptides were evaluated as IC 50 (nM) by means of three replicates. Sigmoidal curve fittings were performed

[3] = system: MSSA1 (methicillin-susceptible Staphylococcus aureus); format: cell-based
Procedure: Evaluation of antibacterial spectra of purified peptides. The MIC assay was performed according to the Clinical and Laboratory Standards Institute protocols. The antibacterial activities of the purified peptides A1, B01–B04, B11–B13, B21, and B22 were measured using the broth microdilution method. 6 Serial dilutions of the peptides were prepared in cation adjusted Mueller Hinton Broth. Each dilution (100 µL) was dispensed to each well of the round-bottom plate to obtain final concentrations ranging from 64 µg/mL to 0.00024 µg/mL. Bacteria were grown at 37 °C overnight on Tryptic Soy Broth or Mueller Hinton Broth agar plates.
The bacterial colonies were suspended in 0.9% saline to obtain OD 625 of 0.08–0.13 using a spectrophotometer UV-1280 (Shimadzu). The resultant suspension was diluted with cation adjusted Mueller Hinton Broth (1/20). The resultant mixture (10 .0 µL) was inoculated to each well of the plates (approximately 5 × 10^4 CFU/well), mixed, and incubated at 37 °C for 18–24 h. The MIC value was determined as the minimum concentration that inhibited growth of bacteria. For Streptococcus species, cation adjusted Mueller Hinton Broth supplemented with 5% laked horse blood was used. […]

[4] = system: P388 mouse leukemia cell line; conditions: for IC50: 2 h
Procedure: as §1, §2, §3, §4, §5, §6, §7, §8, §9, §10, §11, §12, §13, §14

[5] = IC50, mammalian cytotoxicity assay
[6] = cytotoxicity against P388 cells/IC50

SMILES | antibacterial activity/MIC [3] [µg/mL] | IC50 [4] [nM] | antibacterial activity in the library screening [1] | IC50 ([2]; Cytotoxicity IC50) [nM] | IC50 [2, 5] [nM] | IC50 [2, 6] [nM] | weaker cytotoxicity than 1 [4] [fold]
CC(C)C[C@@H](NC(=O)[C@H](Cc1c[nH]c2ccccc12)NC(=O)[C@@H](CC(C)C)NC(=O)[C@H](Cc1c[nH]c2ccccc12)NC(=O)[C@@H](CC(C)C)NC(=O)[C@H](Cc1c[nH]c2ccccc12)NC(=O)[C@H](NC(=O)[C@@H](NC(=O)[C@H](NC(=O)[C@H](C)NC(=O)[C@H](NC(=O)[C@H](C)NC(=O)CNC(=O)[C@@H](NC=O)C(C)C)C(C)C)C(C)C)C(C)C)C(C)C)C(=O)N[C@@H](Cc1c[nH]c2ccccc12)C(=O)NCCO [A1] (For-VGA[dV]A[dV]V[dV]W[dL]W[dL]W[dL]W-NHCH2CH2OH) | 8 |  | +++ | 4.1 | 3.52 |  | 
CC(C)C[C@@H](NC(=O)[C@H](Cc1c[nH]c2ccccc12)NC(=O)[C@H](NC(=O)[C@@H](NC(=O)[C@H](NC(=O)[C@H](C)NC(=O)[C@H](NC(=O)[C@H](C)NC(=O)CNC(=O)[C@@H](NC=O)C(C)C)C(C)C)C(C)C)C(C)C)C(C)C)C(=O)N[C@@H](Cc1c[nH]c2ccccc12)C(=O)N[C@@H](C(=O)N[C@@H](Cc1c[nH]c2ccccc12)C(=O)N[C@@H](C(=O)N[C@@H](Cc1c[nH]c2ccccc12)C(=O)NCCO)C(C)C)C(C)C [B01] (For-VGA[dV]A[dV]V[dV]W[dL]W[dV]W[dV]W-NHCH2CH2OH) | 16 |  |  | 17 |  | 17.5 ± 12 | 
CC(C)C[C@@H](NC(=O)[C@H](C)NC(=O)[C@H](NC(=O)[C@H](C)NC(=O)CNC(=O)[C@@H](NC=O)C(C)C)C(C)C)C(=O)N[C@H](C(=O)N[C@@H](C(=O)N[C@@H](Cc1c[nH]c2ccccc12)C(=O)N[C@@H](C(=O)N[C@@H](Cc1c[nH]c2ccccc12)C(=O)N[C@H](CC(C)C)C(=O)N[C@@H](Cc1c[nH]c2ccccc12)C(=O)N[C@H](CC(C)C)C(=O)N[C@@H](Cc1c[nH]c2ccccc12)C(=O)NCCO)C(C)C)C(C)C)C(C)C [B02] (For-VGA[dV]A[dL]V[dV]W[dV]W[dL]W[dL]W-NHCH2CH2OH) | 32 |  |  | 17 | 18.7 | 16.8 ± 2.82 | 
CC(C)C[C@@H](NC(=O)[C@H](C)NC(=O)CNC(=O)[C@@H](NC=O)C(C)C)C(=O)N[C@@H](C)C(=O)N[C@@H](C(=O)N[C@H](C(=O)N[C@@H](C(=O)N[C@@H](Cc1c[nH]c2ccccc12)C(=O)N[C@@H](C(=O)N[C@@H](Cc1c[nH]c2ccccc12)C(=O)N[C@@H](C(=O)N[C@@H](Cc1c[nH]c2ccccc12)C(=O)N[C@@H](C(=O)N[C@@H](Cc1c[nH]c2ccccc12)C(=O)NCCO)C(C)C)C(C)C)C(C)C)C(C)C)C(C)C)C(C)C [B03] (For-VGA[dL]A[dV]V[dV]W[dV]W[dV]W[dV]W-NHCH2CH2OH) | 32 |  |  | 38 | 35.9 | 37.6 ± 1.56 | 
CC(C)C[C@@H](NC(=O)[C@H](C)NC(=O)CNC(=O)[C@@H](NC=O)C(C)C)C(=O)N[C@@H](C)C(=O)N[C@@H](C(=O)N[C@H](C(=O)N[C@@H](C(=O)N[C@@H](Cc1c[nH]c2ccccc12)C(=O)N[C@@H](C(=O)N[C@@H](Cc1c[nH]c2ccccc12)C(=O)N[C@H](CC(C)C)C(=O)N[C@@H](Cc1c[nH]c2ccccc12)C(=O)N[C@@H](C(=O)N[C@@H](Cc1c[nH]c2ccccc12)C(=O)NCCO)C(C)C)C(C)C)C(C)C)C(C)C)C(C)C [B04] (For-VGA[dL]A[dV]V[dV]W[dV]W[dL]W[dV]W-NHCH2CH2OH) | 32 |  |  | 41 | 34.3 | 40.6 ± 5.95 | 
CC(C)C[C@@H](NC(=O)[C@H](C)NC(=O)CNC(=O)[C@@H](NC=O)C(C)C)C(=O)N[C@@H](C)C(=O)N[C@H](CC(C)C)C(=O)N[C@H](C(=O)N[C@H](CC(C)C)C(=O)N[C@@H](Cc1c[nH]c2ccccc12)C(=O)N[C@H](CC(C)C)C(=O)N[C@@H](Cc1c[nH]c2ccccc12)C(=O)N[C@@H](C(=O)N[C@@H](Cc1c[nH]c2ccccc12)C(=O)N[C@@H](C(=O)N[C@@H](Cc1c[nH]c2ccccc12)C(=O)NCCO)C(C)C)[C@H](C)O)C(C)C [B11] (For-VGA[dL]A[dL]V[dL]W[dL]W[dT]W[dV]W-NHCH2CH2OH) | 8 |  |  |  | 289 | 250 ± 57.7 | 

Continued, in another order:

antibacterial activity/MIC [3] [µg/mL] | IC50 [4] [nM] | SMILES | antibacterial activity in the library screening [1] | IC50 ([2]; Cytotoxicity IC50) [nM] | IC50 [2, 5] [nM] | IC50 [2, 6] [nM] | weaker cytotoxicity than 1 [4] [fold]
4 |  | CC(C)C[C@@H](NC(=O)[C@H](C)NC(=O)CNC(=O)[C@@H](NC=O)C(C)C)C(=O)N[C@@H](C)C(=O)N[C@@H](C(=O)N[C@H](C(=O)N[C@@H](C(=O)N[C@@H](Cc1c[nH]c2ccccc12)C(=O)N[C@H](CC(C)C)C(=O)N[C@@H](Cc1c[nH]c2ccccc12)C(=O)N[C@H](CC(C)C)C(=O)N[C@@H](Cc1c[nH]c2ccccc12)C(=O)N[C@@H](C(=O)N[C@@H](Cc1c[nH]c2ccccc12)C(=O)NCCO)C(C)C)[C@H](C)O)C(C)C)C(C)C [B12] (For-VGA[dL]A[dV]V[dT]W[dL]W[dL]W[dV]W-NHCH2CH2OH) |  | 390 | 340 | 387 ± 90.9 | 70
8 | > 1000 | CC(C)C[C@@H](NC(=O)[C@H](C)NC(=O)CNC(=O)[C@@H](NC=O)C(C)C)C(=O)N[C@@H](C)C(=O)N[C@@H](C(=O)N[C@H](C(=O)N[C@@H](C(=O)N[C@@H](Cc1c[nH]c2ccccc12)C(=O)N[C@H](CC(C)C)C(=O)N[C@@H](Cc1c[nH]c2ccccc12)C(=O)N[C@H](CC(C)C)C(=O)N[C@@H](Cc1c[nH]c2ccccc12)C(=O)N[C@H](CC(C)C)C(=O)N[C@@H](Cc1c[nH]c2ccccc12)C(=O)NCCO)[C@H](C)O)C(C)C)C(C)C [B13] (For-VGA[dL]A[dV]V[dT]W[dL]W[dL]W[dL]W-NHCH2CH2OH) |  |  | > 1000 |  | 
16 | > 1000 | CC(C)C[C@@H](NC(=O)[C@H](C)NC(=O)[C@H](NC(=O)[C@H](C)NC(=O)CNC(=O)[C@@H](NC=O)C(C)C)[C@H](C)O)C(=O)N[C@H](C(=O)N[C@H](CC(C)C)C(=O)N[C@@H](Cc1c[nH]c2ccccc12)C(=O)N[C@@H](C(=O)N[C@@H](Cc1c[nH]c2ccccc12)C(=O)N[C@H](CC(C)C)C(=O)N[C@@H](Cc1c[nH]c2ccccc12)C(=O)N[C@@H](C(=O)N[C@@H](Cc1c[nH]c2ccccc12)C(=O)NCCO)C(C)C)[C@H](C)O)C(C)C [B21] (For-VGA[dT]A[dL]V[dL]W[dT]W[dL]W[dV]W-NHCH2CH2OH) | Neither of these peptides exhibited growth inhibition activity |  | > 1000 |  | 
> 64 | > 1000 | CNC(=O)C[C@@H](NC(=O)[C@@H](NC(=O)[C@@H](CC(C)C)NC(=O)[C@H](C)NC(=O)[C@@H](CC(C)C)NC(=O)[C@H](C)NC(=O)CNC(=O)[C@@H](NC=O)C(C)C)C(C)C)C(=O)N[C@@H](Cc1c[nH]c2ccccc12)C(=O)N[C@H](CC(C)C)C(=O)N[C@@H](Cc1c[nH]c2ccccc12)C(=O)N[C@H](CC(C)C)C(=O)N[C@@H](Cc1c[nH]c2ccccc12)C(=O)N[C@@H](C(=O)N[C@@H](Cc1c[nH]c2ccccc12)C(=O)NCCO)[C@H](C)O [B22] (For-VGA[dL]A[dL]V[dD](NHMe)W[dL]W[dL]W[dT]W-NHCH2CH2OH) | Neither of these peptides exhibited growth inhibition activity |  | > 1000 |  | 
